Where a SMILES comes first, the peptide text is derived from it.

For assay [1], the system named is LG2-EBV cells (express HLA-B*3503). Description: 51Cr release assay: lysis of peptide-pulsed LG2-EBV cells by CTL 35-24. Format: cell-based, human. The note with it: LG2-EBV cells (HLA-B*3503). From the text:
(§1) The same TNF assay as is described in example 2, supra, was used, except fragments of tyrosinase cDNA, rather than complete cDNA molecules, were used. Three fragments were positive, and these corresponded to nucleotides 1-1086, 427-1134, and 703-1134 of the coding region of tyrosinase cDNA. A fragment corresponding to position 574-831 was negative, leading to the conclusion that nucleotides 831-1086 encoded for the presented antigen. These correspond to amino acids 270-362 of tyrosinase, whose amino acid sequence is known. This amino acid sequence was compared to known peptides, which bind to HLA-B*3501, and its binding motif, as described by Rammensee, et al., supra, incorporated by reference. This reference describes a binding motif for HLA-B35 which is a nonapeptide, where Pro is found at position 2, and Tyr is found at position 9. For decapeptides, Ramensee, et al, gives P2 and Y10 as anchors. HLA-B*3501 was used because no information was found in the art for HLA-B*3503. Ramensee et al. also gives Phe, Met, Leu, and Ile as auxiliary anchors for P9. The peptide defined by amino acid sequence LPSSADVEF (SEQ ID NO: 1) satisfies these requisites, and is found at amino acids 312-320 of tyrosinase. […] The ^51Cr release was measured after 3.5 hours.

The test system of assay [2] is HA7-EBV cells (express HLA B*3501). Put plainly: 51Cr release assay: lysis of peptide-pulsed HA7-EBV cells by CTL 35-24. The following applies: HA7-EBV cells (HLA B*3501). The class given is cell-based, human.
Source text: as §1

Setting [3] is: varying concentrations of peptide.

For the compound `CC(C)C[C@H](N)C(=O)N1CCC[C@H]1C(=O)N[C@@H](CO)C(=O)N[C@@H](CO)C(=O)N[C@@H](C)C(=O)N[C@@H](CC(=O)O)C(=O)N[C@H](C(=O)N[C@@H](CCC(=O)O)C(=O)N[C@@H](Cc1ccccc1)C(=O)O)C(C)C` [SEQ ID NO: 1, LPSSADVEF] (H-LPSSADVEF-OH; N-terminus and C-terminus assumed), the EC50 in assay [1] (30 minutes with peptide, then CTL 35-24, effector:target 5:1, 51Cr release after 3.5 hours, read-out: dose of peptide giving half maximal lysis) was 1 nM; in assay [2] (30 minutes with peptide, then CTL 35-24, 51Cr release after 3.5 hours, read-out: dose of peptide giving half maximal lysis), approximately 10 nM. The “lysis of peptide-pulsed cells by CTL 35-24” value in assay [1] (setting [3]) and in assay [2] (setting [3]) was “provoked lysis” throughout.

Source of the values: patent publication US6667037B1, “Isolated peptides which bind to HLA-B35 molecules, larger peptides which contain these, nucleic acid molecules encoding peptides, and uses thereof” (Ludwig Institute for Cancer Research, priority 1998, dated 2003).
